Test results: US10851348B2, “Proliferative primary human Sertoli cell cultures and their applications” (Mandalmed, Inc., priority 2006, dated 2020)

Tests used:
rat Sertoli cell TJs = settings: cited from earlier work
[1] = test system: human Sertoli cells (MM-HSe-2305 cells); assay: BrdU proliferation of human Sertoli cells in response to FSH treatment; format: cell-based; settings: 200-ng/ml FSH for 1 week; >50 fields; p<0.001 vs without FSH
Experimental: It has been reported that cultured rat Sertoli cells, proliferate in response to recombinant FSH (Buzzard, Wreford et al. 2002). We determined the response of the human cells to FSH treatment to provide further evidence that they are Sertoli cells. The human Sertoli cells (MM-HSe-2305 cells; 7,000 per well) were placed in 8-well chamber slides and incubated with control media or with media containing 200-ng/ml FSH (Sigma-Aldrich) for 1 week. Then the cells were labeled with BrdU that is incorporated into nuclei during DNA synthesis prior to mitosis. The slides were stained with anti-BrdU antibody (finally stained by Texas red) followed by staining with an antibody to FSHr (finally with FITC), and nuclei marked by bisbenzamide.
Briefly, the MM-HSE-2305 cells were labeled with BrdU (Roche; 100 μM) at 37° C./[…] for 2 hours then washed three times with PBS followed by fixing with 4% PFA for 30 min. […] Fluorescence was enhanced by incubating with ABC solution (Vector laboratories) for 30 min. Immunoreactivity was visualized by fluorescence microscopy using avidin-conjugated Texas red (1:200 in PBS) for 1 hour.
Photomicrographs were taken with different filters of the same field. The percentage of proliferating Sertoli cells was determined by the counting the number of FSHr, BrdU double positive cells and dividing this by the total number of cells per field. […]

Molecule	effect on permeability of rodent Sertoli cell monolayers (rat Sertoli cell TJs; effect lasted for a number of days)	effect on Sertoli cell TJs (rat Sertoli cell TJs; in vivo, and in vitro at the 5 and 10 μM concentration)	percent of cells undergoing proliferation (FSHr, BrdU double positive cells / total cells) [1] [%]
[Cl][Cd][Cl] [Cadmium chloride, cadmium chloride]	increased the permeability	damage rat Sertoli cell TJs	
follicle stimulating hormone [FSH]			12.35
